Source: patent US4309362A, “Process for the optical resolution of DL-p-hydroxy-phenylglycine” (Tanabe Seiyaku Co., Ltd., priority 1976, dated 1982)
In brackets after ≈: the same amount, converted by molar mass.

Legend:
[1] = Solubility of p-hydroxyphenylglycine p-ethylbenzenesulfonate in aqueous 3 M p-ethylbenzenesulfonic acid (Table 2); format: physicochemical; settings: aqueous 3 M p-ethylbenzenesulfonic acid solution
From the text: *an aqueous 3 M pethylbenzenesulfonate acid solution

physchem [2] = settings: 0.5 m benzenesulfonic acid, organic solvent or mixture, aqueous 0.5 M benzenesulfonic acid solution
physchem [3] = format: physicochemical; settings: water
Experimental: DL-, D- or L-p-hydroxyphenylglycine sulfosalicylate is prepared in the same manner as described in Example 1.
p-hydroxyphenyl- Specific Solubility (g/100
Melting rotation ml of water)

[4] = Solubility of p-hydroxyphenylglycine o-toluenesulfonate in water (Table 3); format: physicochemical

For N[C@H](C(=O)O)c1ccc(O)cc1 [p-hydroxyphenylglycine p-ethylbenzenesulfonate, L-enantiomer, L-p-hydroxyphenylglycine p-ethylbenzenesulfonate], the solubility ([1]; 20° C.) was 10.3 g/100 ml of solvent, the solubility ([1]; 30° C.) was 14.2 g/100 ml of solvent and the solubility ([1]; 40° C.) was 21.8 g/100 ml of solvent.
NC(C(=O)O)c1ccc(O)cc1.O=S(=O)(O)c1ccccc1 (racemic) [DL-p-hydroxyphenylglycine benzenesulfonate] gave a solubility (physchem [2]; 20° C.) of 154 mg/mL, a solubility (physchem [2]; 30° C.) of 241 mg/mL and a solubility (physchem [2]; 40° C.) of 350 mg/mL.
With N[C@@H](C(=O)O)c1ccc(O)cc1 (single isomer, unassigned; enantiomer d) [p-hydroxyphenylglycine p-ethylbenzenesulfonate, D-enantiomer, D-p-hydroxyphenylglycine p-ethylbenzenesulfonate] the solubility ([1]; 20° C.) was 10.3 g/100 ml of solvent, the solubility ([1]; 30° C.) was 14.2 g/100 ml of solvent and the solubility ([1]; 40° C.) was 21.8 g/100 ml of solvent.
For N[C@@H](C(=O)O)c1ccc(O)cc1 (single isomer, unassigned; enantiomer d) [p-hydroxyphenylglycine sulfosalicylate monohydrate, D-enantiomer, D-p-hydroxyphenylglycine sulfosalicylate], the solubility (physchem [3]) was 14.0 g/100 ml of water and the solubility (physchem [3]; Solubility) was 100 mg/mL.
N[C@@H](C(=O)O)c1ccc(O)cc1 [p-hydroxyphenylglycine o-toluenesulfonate, D-enantiomer, D-p-hydroxyphenylglycine o-toluenesulfonate] gave a solubility ([4]; 20° C.) of 77 mg/mL (≈ 461 mM), a solubility ([4]; 30° C.) of 96 mg/mL (≈ 574 mM) and a solubility ([4]; 40° C.) of 122 mg/mL (≈ 730 mM).
NC(C(=O)O)c1ccc(O)cc1 (racemic) [DL-p-hydroxyphenylglycine o-toluenesulfonate] gave a solubility ([4]; 20° C.) of 123 mg/mL (≈ 736 mM), a solubility ([4]; 30° C.) of 160 mg/mL (≈ 957 mM) and a solubility ([4]; 40° C.) of 210 mg/mL (≈ 1260 mM).
In the case of N[C@@H](C(=O)O)c1ccc(O)cc1.O=S(=O)(O)c1ccccc1 [p-hydroxyphenylglycine benzenesulfonate, D-enantiomer, D-p-hydroxyphenylglycine benzenesulfonate], the solubility (physchem [2]; 20° C.) is reported as 77 mg/mL, the solubility (physchem [2]; 30° C.) is reported as 110 mg/mL and the solubility (physchem [2]; 40° C.) is reported as 167 mg/mL.
In the case of NC(C(=O)O)c1ccc(O)cc1 (racemic) [DL-p-hydroxyphenylglycine sulfosalicylate], the solubility (physchem [3]) is reported as 26.3 g/100 ml of water and the solubility (physchem [3]; Solubility) is reported as 182 mg/mL (≈ 1090 mM).
With NC(C(=O)O)c1ccc(O)cc1 (racemic) [DL-p-hydroxyphenylglycine p-ethylbenzenesulfonate] the solubility ([1]; 20° C.) was 19.3 g/100 ml of solvent, the solubility ([1]; 30° C.) was 33.2 g/100 ml of solvent and the solubility ([1]; 40° C.) was 52.1 g/100 ml of solvent.
For N[C@H](C(=O)O)c1ccc(O)cc1 [p-hydroxyphenylglycine sulfosalicylate monohydrate, L-enantiomer, L-p-hydroxyphenylglycine sulfosalicylate], the solubility (physchem [3]) was 14.0 g/100 ml of water and the solubility (physchem [3]; Solubility) was 100 mg/mL.
Work on N[C@H](C(=O)O)c1ccc(O)cc1 [p-hydroxyphenylglycine o-toluenesulfonate, L-enantiomer, L-p-hydroxyphenylglycine o-toluenesulfonate] yielded a solubility ([4]; 20° C.) of 77 mg/mL (≈ 461 mM), a solubility ([4]; 30° C.) of 96 mg/mL (≈ 574 mM) and a solubility ([4]; 40° C.) of 122 mg/mL (≈ 730 mM).
With N[C@H](C(=O)O)c1ccc(O)cc1.O=S(=O)(O)c1ccccc1 [p-hydroxyphenylglycine benzenesulfonate, L-enantiomer, L-p-hydroxyphenylglycine benzenesulfonate] the solubility (physchem [2]; 20° C.) was 77 mg/mL, the solubility (physchem [2]; 30° C.) was 110 mg/mL and the solubility (physchem [2]; 40° C.) was 167 mg/mL.
